Experimental data taken from patent US20040248971A1, “Use of vitamin e succinate and antiandrogen combination” (priority 2001, published 2004).
Entries after “also recorded” stand apart in the source; their conditions may differ.

Legend:
[1] = test system: LNCaP cells; assay: MTT assay / cell counting, LNCaP cell growth; assay type: cell-based, human
Protocol: Cells were harvested at the time indicated. […] Cells were harvested at the time indicated. […] Cell growth was determined by the MTT assay. The control group was cultured in 0.1% (vol/vol) ethanol and was set at 100%.
All the cell growth was determined by cell counting and MTT assay. Control group contained 0.1% (v/v) ethanol and was set at 100%.
LNCaP cells were cultured in RPMI medium with 8% FBS, and treated with 10^−5M of the indicated reagent Cells were harvested at the time indicated in the figure. All the cell growth was determined by cell counting and MTT assay. Control group contained 0.1% (v/v) ethanol and was set at 100%.
The human prostate cancer cell line LNCaP was obtained from the American Type Culture collection (Rockville, Md.). Fibroblast cell was primarily cultured from normal prostate tissue. LNCaP cells were propagated in 12-well, 60 mm or 100 mm culture dishes at the desired density in RPMI 1640 medium (Gibco, Rockville, Md.) supplemented with 8% fetal bovine serum (FBS) (Gibco, Rockville, Md.) at 37° C. and 5% CO2 until reaching 60%-80% confluence or were grown in phenol red-free RPMI medium 1640 with 8% fetal bovine serum (FBS). The fibroblast cells were maintained in DMEM (Gibco, Rockville, Md.) with 10% FBS. […] During the treatment, the medium was changed every 4 days and fresh compounds were added every 2 days.
The MTT assay is a quantitative colorimetric assay for mammalian cell survival and proliferation (13, 16). The 5×10^4 LNCaP cells were seeded in 12-well plates. After 36-48 h, the medium was changed to phenol red free RPMI1640 with 8 % FBS or CS-FBS for another 2, 4, and 6 days, with different compound treatment with or without ligand. At the end of each time period treatment, 200 μl of MTT (5 mg/ml; Sigma) was added into the each well with 1 ml of medium for 3 h at 37° C. After incubation, 2 ml of 0.04 M HCl in isopropyl alcohol was added into each well. After 30-min shaking at room temperature and several pippettings, the absorbency was read at a test wavelength of 595 nm. The 2×10^5 fibroblast cells were seeded in each well of 6-well dishes. […] For cell counting, cells were trypsinized, neutralized by medium, and counted on hemocytometers. Fibroblast cells were seeded at 2×10^5 per well in 6-well plates, and cell growth assays were conducted by using the same MTT assay used for LNCaP cells.

[2] = test system: primary cultured fibroblasts from normal prostate tissue; assay: MTT assay, primary cultured prostate fibroblast growth; assay type: cell-based; settings: 10 μM VES, 10% FBS DMEM
[3] = test system: AR; assay: In vivo AR radioligand competition binding assay in LNCaP cells; parameters: species or system human; settings: 10 μM VES pretreatment 24 h; 2.5 nM [3H]R1881
Protocol: [^3H]R1881-binding without competition was set at 100%. […] (B) AR N-C dimerization.
LNCaP cells were plated into 60-mm dishes and grown to 60% confluence. […] After 1-h incubation, cells were harvested by lysis buffer (PBS with 1% Triton X-100). Equal protein amounts of cell extract were subjected to binding assays, which were terminated by adding hydroxylapatite. Each sample was filtered by using a sampling manifold (Millipore) and unbound ligand was removed by washing. Filter papers that contained bound ligand were transferred to counting vials containing 5 ml of liquid scintillation fluid and counted with a multipurpose scintillation counter (Beckman).

**Q.** For Cc1c(C)c2c(c(C)c1OC(=O)CCC(=O)O)CCC(C)(CCCC(C)CCCC(C)CCCC(C)C)O2 (stereo not drawn) [VES, RRR-α-tocopheryl succinate], which “DHT-mediated LNCaP cell growth” value ([1]; 8% CS-FBS with 5 nM DHT, HF 5 μM, VES 10 μM, MTT) is on record?
**A.** effectively represses

**Q.** What about the LNCaP cell growth ([1]; 8% FBS without DHT, HF 5 μM, VES 10 μM, MTT) of the same molecule?
**A.** inhibits; also recorded: differentially inhibit

**Q.** And the LNCaP cell growth ([1]; RPMI 8% FBS, 10^−5M reagent, cell counting and MTT (FIGS. 8 and 10))?
**A.** can inhibit; also recorded: most effective compound; also recorded: most effective isoform

**Q.** And the “prostate fibroblast cell growth” value [2]?
**A.** only a marginal inhibitory effect and not

**Q.** And the “influence on AR ligand binding” value [3]?
**A.** little influence
